The source of these data is ChEMBL document CHEMBL4402538, “Mycobacterial tryptophan biosynthesis: A promising target for tuberculosis drug development?” (Bioorg Med Chem Lett, 2019).

One may read the CC50 as the concentration at which the toxic effect on the cells reaches its halfway point. For orientation: Ki means a dissociation constant, usually derived from enzyme kinetics or from competition with a known ligand. The MIC90 is an inhibitory concentration at the 90% level, which refers to growth in some studies and to a panel of isolates in others. Usually MIC50 stands for the lowest concentration that inhibits either 50% of growth or 50% of the strains tested, depending on the study. Read a high MIC50 as weaker potency. Usually bioavailability stands for the share of a dose that reaches the circulation, judged against a reference dose that is usually intravenous. High values mean much systemic uptake, low ones little systemic uptake.

In brackets after ≈: the same amount, converted by molar mass.

Data set [1] in a line: Cytotoxicity against human HepG2 cells after 48 hrs by CellTiter Glo assay. The data set is classed as cell-based. (In general: Cellular ATP, detected with luciferase, serves as a proxy for viable cell number.)
Data set [2] is described as follows: Intrinsic clearance in mouse liver microsomes incubated for 30 mins and measured up to 30 mins by LC-MS/MS analysis. The data set is classed as ADME, Microsome. The following applies: 0.5 h.
A short description of data set [3]: Inhibition of Mycobacterium tuberculosis Anthranilate phosphoribosyltransferase expressed in Escherichia coli BL21(DE3) pRIL cells using PRPP as substrate in presence of PRAI-InGPS by fluorescence-based assay.
Data set [4] concerns Mycobacterium tuberculosis. The experiment in a line: Antimycobacterial activity against wild-type Mycobacterium tuberculosis H37Rv incubated for 2 weeks. The following applies: 336 h. The data set is classed as functional.
The test system of data set [5] is Mycobacterium tuberculosis. In words: Antimycobacterial activity against pan-sensitive Mycobacterium tuberculosis HN-878 incubated for 2 weeks. The data set is classed as functional. The note with it: HN-878, 336 h.
Data set [6] has as its system Mycobacterium tuberculosis. The experiment in a line: Antimycobacterial activity against pan-sensitive Mycobacterium tuberculosis CI-11 incubated for 2 weeks. The data set is classed as functional. The following applies: CI-11, 336 h.
For data set [7], the system named is Mycobacterium tuberculosis. The experiment in a line: Antimycobacterial activity against pan-sensitive Mycobacterium tuberculosis AS2 incubated for 2 weeks. The note with it: AS2, 336 h. Type of data set: functional.
Data set [8] concerns Mycobacterium tuberculosis. In words: Antimycobacterial activity against pan-sensitive Mycobacterium tuberculosis AS4 incubated for 2 weeks. The data set is classed as functional. The note with it: AS4, 336 h.
Data set [9] relates to Mycobacterium tuberculosis. In words: Antimycobacterial activity against pan-sensitive Mycobacterium tuberculosis CI-5 incubated for 2 weeks. Type of data set: functional. The following applies: CI-5, 336 h.
Data set [10] concerns Mycobacterium tuberculosis. In words: Antimycobacterial activity against pan-sensitive Mycobacterium tuberculosis CDC1551 incubated for 2 weeks. The note with it: CDC1551, 336 h. Type of data set: functional.
Data set [11] relates to Mycobacterium tuberculosis. The experiment in a line: Antimycobacterial activity against pan-sensitive Mycobacterium tuberculosis CI-4 incubated for 2 weeks. The data set is classed as functional. The note with it: CI-4, 336 h.
Data set [12] can be described thus: Cytotoxicity against human HepG2 cells. Type of data set: cell-based.
A short description of data set [13]: Intrinsic clearance in mouse liver microsomes at 1 uM in presence of NADPH measured up to 60 mins by LC-MS/MS analysis. The data set is classed as ADME, Microsome. The following applies: read-out: CLH. (In general: Liver microsomes are a subcellular fraction often used to study metabolism.)
In data set [14] the test system is Mycobacterium tuberculosis. In words: Antimycobacterial activity against wild-type Mycobacterium tuberculosis H37Rv infected in mouse J774 cells assessed as reduction in bacterial growth incubated for 3 days relative to control. Type of data set: functional.
Another data set deals with Mycobacterium marinum. The experiment in a line: Antimycobacterial activity against Mycobacterium marinum infected in zebra fish embryos assessed as reduction in bacterial growth at 15 to 30 uM incubated for 5 days relative to control. The data set is classed as functional.
The subject of data set [15] is Mycobacterium tuberculosis. In words: Antitubercular activity against Mycobacterium tuberculosis H37Rv. The data set is classed as functional.
In data set [16] the test system is Mycobacterium tuberculosis. In words: Antimycobacterial activity against Mycobacterium tuberculosis in absence of tryptophan by Alamar Blue assay. The data set is classed as functional. A general note: The colour change of resazurin is a common sign of viable cells or microbes.
In data set [17] the test system is Mycobacterium tuberculosis. In words: Antitubercular activity against Mycobacterium tuberculosis infected in mouse assessed as reduction in bacterial load in infected mouse spleen at 200 mg/kg administered 8 days post infection and measured at 2 week relative to control. Type of data set: functional.
In data set [18] the test system is Mycobacterium tuberculosis H37Rv. In words: Inhibition of Tryptophan synthase alpha in Mycobacterium tuberculosis H37Rv assessed as bactericidal activity incubated for 4 weeks by agar dilution method.
Data set [19] relates to Mycobacterium tuberculosis. The experiment in a line: Antimycobacterial activity against Mycobacterium tuberculosis H37Rv infected in C57BL/6 mouse assessed as reduction in colony forming unit at 350 mg/kg, po administered for 8 consecutive days starting from day 1 post infection relative to control. Type of data set: functional.
Data set [20] deals with Mycobacterium tuberculosis. The experiment in a line: Antitubercular activity against Mycobacterium tuberculosis H37Rv ATCC 27294 after 10 days. The data set is classed as functional. The note with it: H37Rv ATCC 27294, 240 h.
Data set [21] can be described thus: Cytotoxicity against human HepG2 cells after 24 hrs by CellTiter 96 AQueous One Solution Cell Proliferation assay. Type of data set: cell-based.
The nature of data set [22]: Oral bioavailability in CD-1 mouse at 100 mg/kg measured up to 24 hrs. The following applies: in vivo. Type of data set: ADME, organism-based.
Data set [23] has as its system Mycobacterium tuberculosis. The experiment in a line: Antitubercular activity against Mycobacterium tuberculosis H37Rv infected in BALB/c mouse assessed as reduction in bacterial load in infected mouse spleen at 100 mg/kg, po administered 6 days per week for 4 weeks relative to control. The data set is classed as functional.
Data set [24] relates to Mycobacterium tuberculosis. In words: Antimycobacterial activity against Mycobacterium tuberculosis H37Rv in presence of tryptophan after 14 days by broth microdilution method. Type of data set: functional. The note with it: 336 h.

As for `O=S1(=O)C[C@H](O)[C@@H](N2CCN(c3ccccc3Cl)CC2)C1`, the CC50 at 48 h in data set [1] is above 50 µM. The CLH in data set [2] was 15.7 mL/min/g.
For the compound `O=C(O)c1ccccc1Nc1ccccc1C(=O)O`, the Ki in data set [3] worked out at 1.5 µM.
`N#C[C@@H]1N[C@@H](CO)[C@H]1c1ccc(-c2ccccc2F)cc1`: the MIC90 in data set [4] was found to be 3 µM (≈ 0.847 µg/mL); in data set [5], 3 µM (≈ 0.847 µg/mL); in data set [6], 1.6 µM (≈ 0.452 µg/mL); in data set [7] it was 3 µM (≈ 0.847 µg/mL); in [8], 3 µM (≈ 0.847 µg/mL); in [9], 3 µM (≈ 0.847 µg/mL). Besides, the MIC90 in data set [10] turned out to be 3 µM (≈ 0.847 µg/mL); in [11], 1.6 µM (≈ 0.452 µg/mL). For the same compound, the CC50 in data set [12] is above 100 µM. In addition, in data set [13], the microsomal CLint at 1 µM was found to be 336 µL/min/mg. Further, the “fold change (FC)” value in data set [14] is 8. Also, the “log(activity)” value with Mycobacterium marinum is listed as 1.5.
In data set [15], `O=S1(=O)C[C@H](O)[C@@H](N2CCC(c3ccccc3Cl)CC2)C1` had an MIC of 0.5 µM (≈ 0.165 µg/mL). For the same compound, the CC50 at 48 h in data set [1] is above 100 µM. Also, the CLH in data set [2] amounted to 73.7 mL/min/g.
Take `Nc1cccc(F)c1C(=O)O`: the MIC in data set [16] came to 5 µM (≈ 0.776 µg/mL). Besides, the “fold change (FC)” value in [17] turned out to be 10.
Take `NC(=O)c1ccc(CNC(=O)c2cc(-c3cccc(Cl)c3)on2)cc1`: the MIC in [18] worked out at 6 µg/mL (≈ 16.9 µM).
For `CNS(=O)(=O)c1ccc2c(c1)CCN2C(=O)c1ccccc1F`, the cytotoxic concentration (CC50) at 48 h in data set [1] is above 100 µM. In data set [2], the CLH stood at 39.5 mL/min/g.
`O=S1(=O)C[C@H](O)[C@@H](N2CCN(c3ccc(F)cc3Cl)CC2)C1` displayed an MIC in data set [15] of 2.25 µM (≈ 0.785 µg/mL). The half-maximal cytotoxic concentration (CC50) at 48 h in data set [1] was above 100 µM. The compound further yielded a CLH in data set [2] below 0.5 mL/min/g. Also, the “log(activity)” value in data set [19] is given as 1.4.
As for `O=C(O)CCc1c[nH]c2ccccc12` [INDOLYLPROPIONIC ACID], in data set [20], the MIC50 turned out to be 68 µM (≈ 12.9 µg/mL). The compound also gave a CC50 at 24 h in data set [21] above 1000 µM. For the same compound, the bioavailability in [22] lay in the range of 30 to 33%. In addition, the “fold change (FC)” value in [23] came out at 7.
As to `Cc1cccc(NC(=O)COC(=O)CCc2c[nH]c3ccccc23)c1`, the MIC90 in data set [24] is below 64 µM.
On to `CNS(=O)(=O)c1ccc2c(c1)CCN2C(=O)c1ccc(C)s1`, for which the cytotoxic concentration (CC50) at 48 h in data set [1] was above 100 µM. The same compound returned a CLH in data set [2] of 27.1 mL/min/g.
The compound `Nc1ccc(F)cc1C(=O)O` returned an MIC in [16] of 5 µM (≈ 0.776 µg/mL).
